A short description of series [1]: Chemical stability in sodium chloride up to 2 hr by HPLC analysis. Format: physicochemical.
In series [2] the test system is Blood. The series can be described thus: Biodistribution in tumor bearing Mus musculus KM (mouse) blood at 3.7 MBq, iv by microPET imaging analysis. The class given is ADME, organism-based. Particulars: in vivo, TDE = time-dependent effect.
Series [3] concerns Kidney. Kind of series: Biodistribution in tumor bearing Mus musculus KM (mouse) kidney at 3.7 MBq, iv by microPET imaging analysis. The class given is ADME, organism-based. As to conditions: in vivo, TDE = time-dependent effect.
In series [4] the test system is Blood. Kind of series: Biodistribution in tumor bearing Mus musculus KM (mouse) blood at 3.7 MBq, iv measured at 5 min by microPET imaging analysis. Format: ADME, organism-based. As to conditions: in vivo.
Series [5] relates to Muscle tissue. The series can be described thus: Biodistribution in tumor bearing Mus musculus KM (mouse) muscle at 3.7 MBq, iv measured at 60 min by microPET imaging analysis. Format: ADME, organism-based. Particulars: in vivo, 1 h.
Series [6] deals with Muscle tissue. Kind of series: Biodistribution in tumor bearing Mus musculus KM (mouse) muscle at 3.7 MBq, iv measured at 30 min by microPET imaging analysis. As to conditions: in vivo, 0.5 h. Format: ADME, organism-based.
The subject of series [7] is Muscle tissue. Kind of series: Biodistribution in tumor bearing Mus musculus KM (mouse) muscle at 3.7 MBq, iv measured at 15 min by microPET imaging analysis. The class given is ADME, organism-based. Particulars: in vivo, 0.25 h.
Series [8] has as its system Kidney. Kind of series: Biodistribution in tumor bearing Mus musculus KM (mouse) kidney at 3.7 MBq, iv measured at 120 min by microPET imaging analysis. The class given is ADME, organism-based. Particulars: in vivo, 2 h.
Series [9] has as its system Kidney. The series can be described thus: Biodistribution in tumor bearing Mus musculus KM (mouse) kidney at 3.7 MBq, iv measured at 60 min by microPET imaging analysis. As to conditions: in vivo, 1 h. Format: ADME, organism-based.
Series [10] concerns Liver. Kind of series: Biodistribution in tumor bearing Mus musculus KM (mouse) liver at 3.7 MBq, iv by microPET imaging analysis. The class given is ADME, organism-based. Particulars: in vivo, TDE = time-dependent effect.
A further series relates to Heart. Kind of series: Biodistribution in tumor bearing Mus musculus KM (mouse) heart at 3.7 MBq, iv by microPET imaging analysis. Format: ADME, organism-based. As to conditions: in vivo, TDE = time-dependent effect.
For a further series, the system named is Nucleic Acid. Kind of series: Ratio of drug uptake in tumor to muscle in Mus musculus KM (mouse) at 3.7 MBq, iv at 60 min. Format: ADME, organism-based. As to conditions: in vivo, 1 h.
Series [11] relates to Tumour. Kind of series: Biodistribution in tumor of Mus musculus KM (mouse) at 3.7 MBq, iv measured at 120 min by microPET imaging analysis. Format: ADME, organism-based, Neoplasm. As to conditions: in vivo, 2 h.
The test system of series [12] is Tumour. The series can be described thus: Biodistribution in tumor of Mus musculus KM (mouse) at 3.7 MBq, iv measured at 30 min by microPET imaging analysis. The class given is ADME, organism-based, Neoplasm. As to conditions: in vivo, 0.5 h.
The test system of series [13] is Tumour. Kind of series: Biodistribution in tumor of Mus musculus KM (mouse) at 3.7 MBq, iv measured at 15 min by microPET imaging analysis. Format: ADME, organism-based, Neoplasm. As to conditions: in vivo, 0.25 h.
Series [14] has as its system Brain. Kind of series: Biodistribution in tumor bearing Mus musculus KM (mouse) brain at 3.7 MBq, iv measured at 5 min by microPET imaging analysis. The class given is ADME, organism-based. As to conditions: in vivo.
For series [15], the system named is Brain. Kind of series: Biodistribution in tumor bearing Mus musculus KM (mouse) brain at 3.7 MBq, iv measured at 15 min by microPET imaging analysis. As to conditions: in vivo, 0.25 h. The class given is ADME, organism-based.
Series [16] concerns Tumour. The series can be described thus: Biodistribution in tumor of Mus musculus KM (mouse) at 3.7 MBq, iv by microPET imaging analysis. Format: ADME, organism-based, Neoplasm. Particulars: in vivo, TDE = time-dependent effect.
The next series deals with Lung. The series can be described thus: Biodistribution in tumor bearing Mus musculus KM (mouse) lung at 3.7 MBq, iv measured at 15 min by microPET imaging analysis. Format: ADME, organism-based. As to conditions: in vivo, 0.25 h.
In series [17] the test system is Spleen. The series can be described thus: Biodistribution in tumor bearing Mus musculus KM (mouse) spleen at 3.7 MBq, iv measured at 15 min by microPET imaging analysis. Format: ADME, organism-based. Particulars: in vivo, 0.25 h.
In series [18] the test system is Spleen. Kind of series: Biodistribution in tumor bearing Mus musculus KM (mouse) spleen at 3.7 MBq, iv measured at 5 min by microPET imaging analysis. The class given is ADME, organism-based. As to conditions: in vivo.
In series [19] the test system is Liver. Kind of series: Biodistribution in tumor bearing Mus musculus KM (mouse) liver at 3.7 MBq, iv measured at 30 min by microPET imaging analysis. Format: ADME, organism-based. Particulars: in vivo, 0.5 h.

`COC(=O)CNC(=O)c1ccc(OCC[18F])cc1` [[18F]FEBA]: the Stability result in series [1] was “Stable”. Besides, the Drug uptake entry with Blood [2] is “tde”; in the series with Kidney [3], “tde”; in the series with Blood [4], 4.68 % ID/g; in the series with Muscle tissue [5] it was 0.53 % ID/g; in the series on Muscle tissue [6], 0.94 % ID/g; in the series with Muscle tissue [7] it was 1.25 % ID/g. In addition, the Drug uptake was 0.65 % ID/g with Kidney [8]; 0.97 % ID/g in the series on Kidney [9]; “tde” with Liver [10]; “tde” in the series with Heart; 1.21 % ID/g in the series on Tumour [11]; 1.71 % ID/g with Tumour [12]. Besides, the Drug uptake with Tumour [13] is listed as 2.3 % ID/g; with Brain [14], 1.51 % ID/g; with Brain [15], 1.26 % ID/g; with Tumour [16] it was “tde”; in the series on Lung, 1.69 % ID/g; in the series with Spleen [17], 1.19 % ID/g. In addition, the Drug uptake in the series on Spleen [18] is 2.04 % ID/g; in the series with Liver [19], 1.08 % ID/g. Moreover, the Ratio in the series on Nucleic Acid is listed as 2.8.

The record behind these values is ChEMBL document CHEMBL3046801, “Synthesis of 2-R1-2-(4-(2-fluoroethoxy)benzamido)acetate as potential PET imaging agents” (Med Chem Res, 2012).
